Experiment [1] deals with human neutrophils. Put plainly: Human neutrophil oxidative activity, luminol-enhanced chemiluminescence. Type of experiment: cell-based. In short, it runs like this: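 Purified human neutrophils (5–10×10^5/ml) pre-incubated 30 min at 37 °C with the A2A agonist, ± rolipram and ± TNF-α (1 U/ml), then stimulated with fMLP (1 μM final). Peak luminol-enhanced chemiluminescence expressed as percent of no-agonist control. EC50 from three donors.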

Experiment [2] concerns the target recombinant human A2A receptors (Homo sapiens, UniProt P29274). Kind of experiment: Radioligand competition binding to recombinant human A2A receptors in Sf9 cell membranes. As to conditions: A2A ± SEM, Ki from competition binding, Sf9 cell membranes.
In experiment [3] the target is T1, A3 AR (Homo sapiens, UniProt P0DMS8).
T1 sequence (P0DMS8 1-318): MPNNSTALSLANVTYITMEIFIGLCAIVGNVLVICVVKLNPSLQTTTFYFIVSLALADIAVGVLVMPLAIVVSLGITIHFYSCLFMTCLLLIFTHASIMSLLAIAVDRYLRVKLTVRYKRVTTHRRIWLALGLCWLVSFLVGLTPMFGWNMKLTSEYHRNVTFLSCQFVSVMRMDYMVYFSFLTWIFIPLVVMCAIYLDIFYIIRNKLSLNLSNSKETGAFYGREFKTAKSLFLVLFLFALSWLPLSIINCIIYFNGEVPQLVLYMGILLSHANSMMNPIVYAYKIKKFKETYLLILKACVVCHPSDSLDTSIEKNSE
Put plainly: Radioligand competition binding (125I-ABA) to human A3 AR in HEK 293 cell membranes. Background: In a radioligand displacement assay an active substance lowers the binding of a labelled ligand.

The target of experiment [4] is T2, human A1 AR (Homo sapiens, UniProt P30542).
T2 sequence (P30542 1-326): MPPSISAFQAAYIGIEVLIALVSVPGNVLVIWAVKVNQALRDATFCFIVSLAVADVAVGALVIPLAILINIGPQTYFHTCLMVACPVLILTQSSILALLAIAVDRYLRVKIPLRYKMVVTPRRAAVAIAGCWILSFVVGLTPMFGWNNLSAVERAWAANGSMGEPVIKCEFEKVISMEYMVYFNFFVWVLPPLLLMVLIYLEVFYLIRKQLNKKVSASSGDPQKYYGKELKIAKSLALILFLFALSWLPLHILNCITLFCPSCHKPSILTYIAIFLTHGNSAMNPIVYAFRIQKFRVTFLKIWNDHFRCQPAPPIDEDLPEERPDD
Kind of experiment: Radioligand competition binding (125I-ABA) to human A1 AR in CHO K1 cell membranes.

In experiment [5] the test system is liver ischemia/reperfusion injury. Kind of experiment: Liver ischemia/reperfusion injury, serum GPT. The conditions noted are these: administered 6 hours prior to I/R injury; serum GPT 24 hours later; vs. a control compound and ATL146e; FIG. 17. The class given is in vivo, Mice. How it is done: Mice were anesthetized by intraperitoneal injection of ketamine 100 mg/kg and xylazine 10 mg/kg. Glycopyrrolate (Robinul-V™) 0.05 mg/kg was delivered subcutaneously before the operation. The ambient temperature was controlled in the range of 24° C. to 26° C. Mice were placed on a 37° C. heat pad with their core temperature monitored by a TH-8 Thermalert™ Monitoring Thermometer (Physitemp) and maintained at 36-37° C. by a TCAT-1A Temperature Control and Alarm Unit (Physitemp) during the entire procedure. After midline laparotomy, a microaneurysm clip was applied to the hepatic triad above the bifurcation to clamp the flow of the hepatic artery, portal vein, and bile duct. […]
Serum GPT (ALT) levels were measured using a Transaminase kit (505, Sigma). Briefly, 20 μL serum sample was mixed with 100 (L pre-heated Alanine-α-KG substrate and incubated in a 37° C. water bath for 30 minutes. Then we added 100 (L Sigma Color Reagent to the reaction and left it at room temperature for 20 minutes. We stopped the reaction with 1.0 ml 0.4N sodium hydroxide solution. Absorbance of each sample at 505 nm was measured and converted into SF unit/ml.
The test compounds were administered 6 hours prior to I/R injury. Tissue protection is measured by amount of Serum GPT present in the in a serum sample 24 hours later, with smaller GPT concentrations indicating better liver function.

Chain of recombinant human A2A receptors (P29274 whole entry): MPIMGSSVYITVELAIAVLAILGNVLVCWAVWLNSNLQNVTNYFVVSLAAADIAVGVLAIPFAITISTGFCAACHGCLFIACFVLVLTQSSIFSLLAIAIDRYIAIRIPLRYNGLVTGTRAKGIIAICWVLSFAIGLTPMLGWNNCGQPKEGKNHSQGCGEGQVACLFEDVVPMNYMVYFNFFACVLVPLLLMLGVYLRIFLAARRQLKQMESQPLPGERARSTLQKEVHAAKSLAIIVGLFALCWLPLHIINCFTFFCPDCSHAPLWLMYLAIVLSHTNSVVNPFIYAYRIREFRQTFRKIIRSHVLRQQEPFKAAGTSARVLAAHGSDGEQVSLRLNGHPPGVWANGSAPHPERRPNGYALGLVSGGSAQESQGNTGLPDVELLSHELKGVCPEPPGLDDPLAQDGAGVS

As for `CCNC(=O)[C@H]1O[C@@H](n2cnc3c(N)nc(C#C[C@]4(O)CCC[C@@H](C)C4)nc32)C(O)C1O` (stereo in doubt) [JR-3223, 5-[6-Amino-2-(1-hydroxy-3-methylcyclohexylethynyl)purin-9-yl]-3,4-dihydroxytetrahydrofuran-2-carboxylic acid ethylamide], the EC50 (as a rule, the concentration at which the effect is half-maximal) in experiment [1] (Homo sapiens, Neutrophil, human neutrophil experiment w/o Rolipram, read-out: PMN oxid (-log EC50) (converted)) is 0.339 nM. The “PMN oxid + roli (-log EC50)” value in experiment [1] (human neutrophil experiment w/Rolipram) came to 10.15. Further, the Ki (commonly a dissociation constant, usually derived from enzyme kinetics or from competition with a known ligand) in experiment [2] was 0.92 ± 0.2 nM; in experiment [3] (A3 ± SEM, Ki from competition binding, 125I-ABA, HEK 293 cell membranes), 0.7 ± 0.02 nM; in experiment [4] (A1 ± SEM, Ki from competition binding, 125I-ABA, CHO K1 cell membranes), 4.8 ± 0.3 nM. In addition, the A3/A2A in experiment [3] (selectivity ratio A3 over A2A) worked out at 0.8. Moreover, the A1/A2A in experiment [4] (selectivity ratio A1 over A2A) is 5.2. Also, the “duration of action for liver tissue protection (Serum GPT)” value in experiment [5] was “longer duration of action”.

Source of the values: patent US7737127B2, “2-propynyl adenosine analogs having A2A agonist activity and compositions thereof” (University of Virginia Patent Foundation, priority 2001, dated 2010).
